Reference: patent US20090054507A1, “CONTROL OF MALIGNANT CELLS BY KINASE INHIBITION” (CLEVELAND STATE UNIVERSITY, priority 2006, published 2009)

Legend:
[1] = system: MEG-01 xenografts; test: In vivo therapy of MEG-01 xenografts, tumor volume; set-up: species or system mice; details: for tumor volume: subcutaneous in the neck, 2 weeks
Excerpt: (§1) Creation of MEG-01 xenografts. Immunodeficient male athymic nude nu/nu mice were used, provided and housed by Dr. Lindner, D J from Taussig Cancer Center, Cleveland Clinic and Case Western Reserve University. The mice were checked every day. The mice were housed in filtered air flow cabinets with autoclaved bedding at a density of 5 mice/cage. They were fed autoclaved Purina Lab Rodent Chow® 5010 and HCl-acidified distilled water ad libitum and were placed in rooms with controlled temperature, humidity and 12-hr light-dark cycles. Procedures involving animals and their care were conducted in conformity with the institutional guidelines that are in compliance with national and international laws and policies (EEC Council Directive 86/609, OJL 358, Dec. 1, 1987, and the National Institutes of Health Guide for the Care and Use of Laboratory, Animals, NIH Publication 85-23, 1985).
For engraftment, cells in cell culture media were injected. MEG-01 myeloid blast crisis cells (10×10^6 cells/100 μl in cell culture media (RPMI 1640 1×, 10% FBS) were injected subcutaneously into the lower flanks of mice (left and right). Cells were counted with a hemacytometer using Trypan blue (only live cells were counted).
After 10 days the mice developed tumors large enough to start the treatment. Tumors were visible after 6-7 days from inoculation. The average weight of the mice typically ranged 30-35 g. Treatment with DMAT was started when tumors were at least 100-200 mm^3 volumes (prolate spheroid). Tumor volumes were calculated as prolate spheroid (4/3*π*(a)^2*(b), where “2a” is the minor axis and “2b” is the major axis of the prolate spheroid. “2a” and “2b” were measured with a caliper (mm). Animals were treated with DMAT for approximately 2 weeks. When tumor volumes reached a size unacceptable with the IACUC protocols, animals were sacrificed in a CO2 euthanasia chamber. Tumors were collected for further histological analysis. […]
In vivo therapy with DMAT of MEG-01 xenografts. […] Tumor diameters were measured using a caliper and tumor volume was calculated using the prolate-spheroid formula. […]

[2] = system: MCF-7 xenografts; test: In vivo therapy of MCF-7 xenografts, tumor volume; set-up: species or system mice
Excerpt: as §1, with “the xenografts MCF-7, SW-480 and WM-164.” for “MEG-01 xenografts.”, “male and female” for “male”, “DJ” for “D J”, “Mice” for “The mice”
For engraftment, cells in cell culture media were injected. […] Cells were counted with a hemacytometer using Trypan blue (only live cells were counted). […]
In vivo therapy with DMAT of MCF-7 xenografts. […] Tumor diameters were measured using a caliper and tumor volume was calculated using the prolate-spheroid formula. […]

SMILES: CN(C)c1nc2c(Br)c(Br)c(Br)c(Br)c2[nH]1 [DMAT, 2-dimethylamino-4,5,6,7-tetrabromo-1H-benzimidazole]
- tumor volume ([1]; DMAT 2 mg (in DMSO) per animal per day): proliferation arrest in vivo in large tumors and tumor ablation in small tumors
- tumor volume ([1]; DMAT 3 mg (in DMSO) per animal per day): proliferation arrest in vivo for large tumors and tumor ablation in small tumors
- response of xenograft tumors to treatment (summary) ([1]; mouse, in vivo): tumor ablation
- tumor volume ([2]; DMAT 10 mg/kg (in DMSO) per day, 13 day period, control about 50 to about 1750 mm^3): remarkably stable size and nearly no increase
- response of xenograft tumors to treatment (summary) ([2]; mouse, in vivo): tumor ablation
